Measured values reported in patent publication US9187471B2, “Pyrido [4,3-b] indole and pyrido [3,4-b] indole derivatives and methods of use” (Medivation Technologies, Inc., priority 2010, dated 2015).

Experiments:
[1] = biological target: T1, human recombinant serotonin (5-Hydroxytryptamine) 5-HT6 receptor (Homo sapiens, UniProt P50406); experiment: Serotonin 5-HT6 radioligand binding ([3H]LSD); details: compound at 0.1 μM; read-out: Inhibition of ligand binding, Serotonin 5-HT6 (percent inhibition of specific binding)
T1 construct: expressed in transfected cells; host or cells: HeLa
T1 sequence (P50406 whole entry): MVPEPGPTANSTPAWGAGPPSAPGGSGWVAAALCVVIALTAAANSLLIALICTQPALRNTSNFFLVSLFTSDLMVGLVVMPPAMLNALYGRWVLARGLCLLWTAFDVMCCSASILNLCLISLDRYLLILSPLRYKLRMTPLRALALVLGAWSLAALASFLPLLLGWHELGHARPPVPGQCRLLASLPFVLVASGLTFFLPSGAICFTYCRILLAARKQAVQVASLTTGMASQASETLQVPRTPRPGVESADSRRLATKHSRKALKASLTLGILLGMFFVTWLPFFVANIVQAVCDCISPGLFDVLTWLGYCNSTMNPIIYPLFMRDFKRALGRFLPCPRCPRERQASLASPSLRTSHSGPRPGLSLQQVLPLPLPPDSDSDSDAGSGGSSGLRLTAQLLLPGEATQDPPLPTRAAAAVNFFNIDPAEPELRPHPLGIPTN
From the text: Receptor proteins were filtered and washed, the filters were then counted to determine [3H]LSD specifically bound.

[2] = biological target: T2, human recombinant serotonin (5-Hydroxytryptamine) 5-HT7 receptor (Homo sapiens, UniProt P34969); experiment: Serotonin 5-HT7 radioligand binding ([3H]LSD); details: compound at 0.1 μM; read-out: Inhibition of ligand binding, Serotonin 5-HT7 (percent inhibition of specific binding)
T2 construct: expressed in transfected cells; host or cells: CHO
T2 sequence (P34969 whole entry): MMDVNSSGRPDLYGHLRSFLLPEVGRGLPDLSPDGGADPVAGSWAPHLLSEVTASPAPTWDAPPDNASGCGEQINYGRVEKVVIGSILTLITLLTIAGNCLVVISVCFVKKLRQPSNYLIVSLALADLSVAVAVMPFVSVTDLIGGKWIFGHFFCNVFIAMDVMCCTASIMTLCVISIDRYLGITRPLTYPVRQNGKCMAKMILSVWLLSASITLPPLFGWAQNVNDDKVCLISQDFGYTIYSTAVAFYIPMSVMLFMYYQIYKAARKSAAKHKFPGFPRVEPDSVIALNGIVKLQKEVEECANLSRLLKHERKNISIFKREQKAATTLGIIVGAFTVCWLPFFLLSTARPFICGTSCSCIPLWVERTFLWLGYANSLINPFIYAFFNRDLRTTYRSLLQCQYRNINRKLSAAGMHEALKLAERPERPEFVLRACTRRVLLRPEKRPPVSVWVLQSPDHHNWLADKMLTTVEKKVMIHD
Method: Lysergic acid diethylamide (LSD) for 120 min. at 25° C. […] Receptor proteins were filtered and washed, the filters were then counted to determine [^3H]LSD specifically bound.

[3] = biological target: T3, human recombinant serotonin (5-Hydroxytryptamine) 5-HT2C receptor (Homo sapiens, UniProt P28335); experiment: Serotonin 5-HT2C radioligand binding ([3H]Mesulergine); details: compound at 0.1 μM; read-out: Inhibition of ligand binding, Serotonin 5-HT2C (percent inhibition of specific binding)
T3 construct: expressed in transfected cells; host or cells: CHO-K1
T3 sequence (P28335 33-458): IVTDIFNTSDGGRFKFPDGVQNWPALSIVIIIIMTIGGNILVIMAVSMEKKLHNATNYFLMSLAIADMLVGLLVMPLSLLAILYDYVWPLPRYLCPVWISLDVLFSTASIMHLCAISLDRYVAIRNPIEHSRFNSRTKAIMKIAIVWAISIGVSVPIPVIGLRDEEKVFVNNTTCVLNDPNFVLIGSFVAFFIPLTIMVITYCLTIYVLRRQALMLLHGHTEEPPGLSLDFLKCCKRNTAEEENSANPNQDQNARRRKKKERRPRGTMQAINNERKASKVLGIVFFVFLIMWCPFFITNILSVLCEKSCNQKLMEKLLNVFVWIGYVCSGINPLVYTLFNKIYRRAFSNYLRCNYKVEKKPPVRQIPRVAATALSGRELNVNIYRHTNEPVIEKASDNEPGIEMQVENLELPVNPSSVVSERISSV
Method: Compounds of the invention were incubated with 1 nM [^3H]Mesulergine for 60 min at 25° C. Non-specific binding was estimated in the presence of 1 μM Mianserin. Receptor proteins were filtered and washed, the filters were then counted to determine [^3H]Mesulergine specifically bound.

[4] = biological target: T4, human recombinant serotonin (5-Hydroxytryptamine) 5-HT5A receptor (Homo sapiens, UniProt P47898); experiment: Serotonin 5-HT5A radioligand binding ([3H]LSD); details: compound at 0.1 μM; read-out: Inhibition of ligand binding, Serotonin 5-HT5A (percent inhibition of specific binding)
T4 construct: expressed in transfected cells; host or cells: CHO-K1
T4 sequence (P47898 whole entry): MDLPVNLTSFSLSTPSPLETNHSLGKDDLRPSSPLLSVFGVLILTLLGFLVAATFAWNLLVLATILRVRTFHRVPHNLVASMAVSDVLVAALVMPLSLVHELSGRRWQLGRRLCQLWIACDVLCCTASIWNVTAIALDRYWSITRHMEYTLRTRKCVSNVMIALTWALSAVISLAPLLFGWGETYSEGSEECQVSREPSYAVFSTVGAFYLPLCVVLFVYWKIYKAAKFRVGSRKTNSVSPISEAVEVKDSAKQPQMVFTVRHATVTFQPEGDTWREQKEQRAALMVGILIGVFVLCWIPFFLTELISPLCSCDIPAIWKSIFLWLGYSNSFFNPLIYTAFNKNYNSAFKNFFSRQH
Method: Compounds of the invention were incubated with 1.7 nM [^3H]Lysergic acid diethylamide (LSD) for 60 min at 37° C. […] Receptor proteins were filtered and washed, the filters were counted to determine [^3H]LSD specifically bound.

[5] = biological target: T5, human recombinant adrenergic α2C receptor (Homo sapiens, UniProt P18825); experiment: Adrenergic α2C radioligand binding ([3H]MK-912); details: read-out: Adrenergic (0.1 μM) a2C, percent inhibition of specific binding; compound at 0.1 μM; 1 nM [3H]MK-912
T5 construct: expressed in transfected cells; host or cells: insect Sf9 cells
T5 sequence (P18825 1-462): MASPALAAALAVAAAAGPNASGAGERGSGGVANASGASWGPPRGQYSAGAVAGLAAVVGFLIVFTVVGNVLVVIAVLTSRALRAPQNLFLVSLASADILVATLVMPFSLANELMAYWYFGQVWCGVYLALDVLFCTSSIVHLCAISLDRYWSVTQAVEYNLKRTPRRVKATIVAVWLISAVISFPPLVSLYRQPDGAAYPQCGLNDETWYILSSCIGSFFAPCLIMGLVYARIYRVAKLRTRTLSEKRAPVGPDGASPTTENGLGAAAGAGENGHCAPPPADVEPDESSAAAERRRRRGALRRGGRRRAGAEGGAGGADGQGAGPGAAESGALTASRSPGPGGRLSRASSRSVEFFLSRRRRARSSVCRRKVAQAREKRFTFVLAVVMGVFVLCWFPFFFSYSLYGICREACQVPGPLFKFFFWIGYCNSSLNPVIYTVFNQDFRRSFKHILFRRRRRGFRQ
Procedure, shortened: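 Membranes from Sf9 cells expressing the human receptor, in 50 mM Tris-HCl pH 7.4 with 12.5 mM MgCl2 and 2 mM EDTA, incubated with compound and 1 nM [3H]MK-912 for 60 min at 25 °C. Non-specific binding defined with 10 μM WB-4101. Filter-bound radioactivity counted; percent inhibition of specific binding reported.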

[6] = biological target: T6, human recombinant histamine H1 receptor (Homo sapiens, UniProt P35367); experiment: Histamine H1 radioligand binding ([3H]Pyrilamine); details: read-out: Histamine H1 Binding (1 μM), percent inhibition of specific binding; compound at 1 μM; 1.2 nM [3H]Pyrilamine
T6 construct: expressed in transfected cells; host or cells: CHO-K1
T6 sequence (P35367 whole entry): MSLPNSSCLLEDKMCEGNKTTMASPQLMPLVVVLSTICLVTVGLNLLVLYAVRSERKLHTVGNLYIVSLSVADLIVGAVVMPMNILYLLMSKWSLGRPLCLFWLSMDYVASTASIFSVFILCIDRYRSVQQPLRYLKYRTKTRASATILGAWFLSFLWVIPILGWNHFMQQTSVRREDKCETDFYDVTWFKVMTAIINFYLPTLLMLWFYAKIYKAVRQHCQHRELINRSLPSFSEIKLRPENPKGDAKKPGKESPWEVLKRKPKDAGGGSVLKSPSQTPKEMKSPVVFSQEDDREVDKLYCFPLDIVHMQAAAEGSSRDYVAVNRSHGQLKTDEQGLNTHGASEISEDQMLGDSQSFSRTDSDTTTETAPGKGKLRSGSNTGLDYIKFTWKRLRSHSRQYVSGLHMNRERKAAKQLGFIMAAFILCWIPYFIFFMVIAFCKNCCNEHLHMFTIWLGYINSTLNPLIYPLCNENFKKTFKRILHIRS
Procedure, shortened: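 Results expressed as percent inhibition of specific [3H]pyrilamine binding, counted on filters after washing. Receptor source: CHO-K1 cells expressing recombinant human H1, in modified Tris-HCl buffer (50 mM, pH 7.4; 2 mM MgCl2, 100 mM NaCl, 250 mM sucrose). 1 μM pyrilamine defined non-specific binding.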

Structure (SMILES)	inhibition at 0.1 µM [1]	inhibition at 0.1 µM [2]	inhibition at 0.1 µM [3]	inhibition at 0.1 µM [4]	inhibition at 0.1 µM [5]	inhibition at 1 µM [6]
Cc1ccc2c(c1)c1c(n2-c2ccc(-c3ccncc3)cn2)CCN(C)C1 [Compound No. 132, 5-(3,4′-bipyridin-6-yl)-2,8-dimethyl-2,3,4,5-tetrahydro-1H-pyrido[4,3-b]indole]	2%	23%	77%	2%	-2%	3%
Cc1ccc2c(c1)c1c(n2-c2cccc(-c3sccc3C)c2)CCN(C)C1 [Compound 43, 2,8-dimethyl-5-(3-(3-methylthiophen-2-yl)phenyl)-2,3,4,5-tetrahydro-1H-pyrido[4,3-b]indole]	28%	33%	8%	39%	-16%	26%
Cc1ccc2c(c1)c1c(n2-c2ccc(-c3ccnn3C)cn2)CCN(C)C1 [Compound No. 146, 2,8-dimethyl-5-(5-(1-methyl-1H-pyrazol-5-yl)pyridin-2-yl)-2,3,4,5-tetrahydro-1H-pyrido[4,3-b]indole]	-17%	16%	30%	10%	-1%	8%
Cc1ccc2c(c1)c1c(n2-c2cccc(-c3ccc(C)s3)c2)CCN(C)C1 [Compound No. 64, 2,8-dimethyl-5-(3-(5-methylthiophen-2-yl)phenyl)-2,3,4,5-tetrahydro-1H-pyrido[4,3-b]indole]	-3%	31%	83%	30%	12%	23%
Cc1ccc2c(c1)c1c(n2-c2cccc(-c3ccc(O)nc3)c2)CCN(C)C1 [Compound 52, 5-(3-(2,8-dimethyl-3,4-dihydro-1H-pyrido[4,3-b]indol-5(2H)-yl)phenyl)pyridin-2-ol]	17%	14%	19%	55%	2%	14%
Cc1ccc2c(c1)c1c(n2-c2cccc3ccncc23)CCN(C)C1 [Compound 58, 5-(isoquinolin-8-yl)-2,8-dimethyl-2,3,4,5-tetrahydro-1H-pyrido[4,3-b]indole]	21%	69%	81%	33%	-1%	31%
CC(=O)Nc1ccc(-c2cccc(-n3c4c(c5cc(C)ccc53)CN(C)CC4)c2)cn1 [Compound 45, N-(5-(3-(2,8-dimethyl-3,4-dihydro-1H-pyrido[4,3-b]indol-5(2H)-yl)phenyl)pyridin-2-yl)acetamide]	6%	51%	26%	37%	7%	8%
Cc1ccc2c(c1)c1c(n2-c2ccccc2-c2cnc(N(C)C)nc2)CCN(C)C1 [Compound 31]	20%	-2%	15%	8%	12%	3%
Cc1ccc2c(c1)c1c(n2-c2ccc(-c3ccc(F)nc3)cn2)CCN(C)C1 [Compound No. 142, 5-(6′-fluoro-3,3′-bipyridin-6-yl)-2,8-dimethyl-2,3,4,5-tetrahydro-1H-pyrido[4,3-b]indole]	-12%	22%	98%	23%	5%	7%
Cc1ccc2c(c1)c1c(n2-c2cccc(-c3cnc(N(C)C)nc3)c2)CCN(C)C1 [Compound 42, 5-(3-(2,8-dimethyl-3,4-dihydro-1H-pyrido[4,3-b]indol-5(2H)-yl)phenyl)-N,N-dimethylpyrimidin-2-amine]	17%	31%	32%	11%	-11%	0%
Cc1cc(C)c2c(c1)c1c(n2-c2ccc3ncccc3c2)CCN(C)C1 [Compound 48]	20%	23%	47%	10%	-7%	4%
Cc1ccc2c(c1)c1c(n2-c2cccc(-c3ccnn3C)c2)CCN(C)C1 [Compound No. 66, 2,8-dimethyl-5-(3-(1-methyl-1H-pyrazol-5-yl)phenyl)-2,3,4,5-tetrahydro-1H-pyrido[4,3-b]indole]	30%	32%	55%	36%	8%	43%
Cc1ccc2c(c1)c1c(n2-c2cscc2-c2cnc(N(C)C)nc2)CCN(C)C1 [Compound 40]	19%	49%	35%	76%	-17%	15%
Cc1ccc2c(c1)c1c(n2-c2ccc3ccncc3c2)CCN(C)C1 [Compound No. 74, 5-(isoquinolin-7-yl)-2,8-dimethyl-2,3,4,5-tetrahydro-1H-pyrido[4,3-b]indole]	14%	2%	51%	21%	11%	18%
Cc1ccc2c(c1)c1c(n2-c2ccc(-c3cccc4[nH]ncc34)cn2)CCN(C)C1 [Compound No. 147, 5-(5-(1H-indazol-4-yl)pyridin-2-yl)-2,8-dimethyl-2,3,4,5-tetrahydro-1H-pyrido[4,3-b]indole]	15%	14%	69%	23%	1%	8%
CNC(=O)c1ccc(-c2cscc2-n2c3c(c4cc(C)ccc42)CN(C)CC3)cn1 [Compound No. 73]	21%	66%	43%	48%	2%	20%
Cc1ccc2c(c1)c1c(n2-c2cscc2-c2ccc(S(C)(=O)=O)cc2)CCN(C)C1 [Compound No. 76]	14%	85%	24%	90%	79%	19%
Cc1ccc2c(c1)c1c(n2-c2cscc2-c2cccc3[nH]ncc23)CCN(C)C1 [Compound 41]	36%	96%	91%	94%	55%	28%
